In publication PMC7156458, “Synthetic biology based construction of biological activity-related library of fungal decalin-containing diterpenoid pyrones” (Nature Communications, 2020):
Several values for one entry are separate records, joined by “and”; a condition that tells them apart may be missing. Equal values may be shown once. Read-outs that look alike come from different tables or passages of the source.

What was measured:
[1] = system: hepatitis B virus (HBV), measles virus (MV), Epstein-Barr virus (EBV), herpes simplex virus (HSV); experiment: preliminary anti-viral screening (other viruses); assay type: cell-based
Description: (§1) We examined the inhibitory activities of DDPs against various species of bacteria (both gram-negative and gram-positive bacteria), fungi and viruses. […] In contrast, preliminary screening of the DDPs for anti-viral agents with hepatitis B virus (HBV), measles virus (MV), Epstein-Barr virus (EBV), herpes simplex virus (HSV) and human immunodeficiency virus-1 (HIV-1) indicated their selective inhibition of HIV.

DL1 cells = experiment: cytotoxicity in Drosophila DL1 cells; assay type: cell-based; settings: DL1 cells; for % viability, viability 2: replicate 2, relative to DMSO 1%; for % viability, viability 1: replicate 1, relative to DMSO 1%; for IC50: cytotoxicity
Protocol: (§2) We screened the DDPs on the Drosophila assay system for cytotoxicity, inhibitory activity of innate immune signalling and insecticidal activity. The cytotoxicity of the DDPs was evaluated using two cell lines, embryonic macrophage-derived DL1 cells[58]–[60] and larval blood cell-derived l(2)mbn cells, and their IC50 values are listed in Supplementary Table 23.

[2] = cytotoxicity in Drosophila DL1 cells; assay type: cell-based; settings: Drosophila, DL1 cells
Protocol: as §2

MCF-7 cells = experiment: mammosphere formation assay; assay type: cell-based, human; settings: MCF-7, 5 μM
Protocol: We also evaluated antiproliferative activity against cancer stem cells (CSCs), which are a small sub-population in tumour bulk identified in most cancer cells and clinical samples[52]. CSCs have been a major problem in cancer therapy because they are responsible for recurrence, metastasis and drug resistance to chemotherapeutic agents that affect proliferative cells[53]–[56]. Anti-CSC activity was evaluated by the inhibition of sphere-forming ability, a well-studied method to enrich the CSC-like population, and selective cytotoxicity against one of the most reliable CSC markers, aldehyde dehydrogenase (ALDH)-positive cells. […] Low-toxicity 16 was also added as a negative control. […] We next evaluated the three DDPs that inhibited mammosphere formations against ALDH-positive cells, a functional marker for breast CSCs. MCF-7 cells were treated with 1 μM of 11, 12 or 22, and the ALDH-positive cell population was analysed by using a fluorescence activated cell sorter (Supplementary Fig. 46b). […] Thus, for the first time, we successfully found DDPs with potent antiproliferative effects on the CSC-like population in MCF-7 cells, which may lead to new anti-CSC drugs.
Fig. 5 DDPs show anti-CSC activity in breast cancer cell line MCF-7. a Effect of DDPs on mammosphere formation. After the cells were cultured in the presence of 5 μM DDPs for 7 days, the number of mammospheres was microscopically counted and the percentage of mammosphere-forming cells was determined as mammosphere-forming efficiency (MFE; %). Data represent mean ± s.d. from three independent replicate experiments. P-values were calculated by a two-sided unpaired Student’s t-test, compared with control. b Micrographs show representative images of mammosphere formation from three independent replicate experiments using compound 11, 12, 16, 22. The scale bar, […]. c Effect of DDPs (1 μM, 3 days) on ALDH-positive cells in MCF-7 cells. Data represent mean ± s.d. from three independent replicate experiments. P-values were calculated by a two-sided unpaired Student’s t-test, compared with control. d Dose-dependent effect of compound 12 on ALDH-positive cells in MCF-7 cells. Data represent mean ± s.d. from three independent replicate experiments. P-values were calculated by a two-sided unpaired Student’s t-test. Source data underlying Fig. 5a, c, d are provided in a Source Data file.

l(2)mbn cells = experiment: cytotoxicity in Drosophila l(2)mbn cells; assay type: cell-based; settings: for Luminescence Raw1: replicate 1; for Luminescence Raw2: replicate 2; for % viability, viability 2: replicate 2, relative to DMSO 1%; for % viability, viability 1: replicate 1, relative to DMSO 1%
Protocol: as §2

[3] = cytotoxicity in Drosophila l(2)mbn cells; assay type: cell-based; settings: Drosophila
Protocol: as §2

[4] = system: human immunodeficiency virus-1 (HIV-1); experiment: anti-HIV MAGI assay; assay type: cell-based; settings: Human immunodeficiency virus 1, MAGI, anti-HIV
Description: as §1

[5] = replicate 1, relative to DMSO 1%, read-out: % viability, viability 1
[6] = replicate 2, relative to DMSO 1%, read-out: % viability, viability 2

In the case of `C=C1CCC2C(C)(CCC=C(C)C)C(O)CCC2(C)C1Cc1c(OC)oc(C)c(C)c1=O` (stereo not drawn) [Compound 11], the “effect on other viruses” value [1] is reported as “without affecting other viruses”, the “Luminescence Raw1” value (DL1 cells; 0.04 µM, replicate 1) is reported as 2962736 and the “Luminescence Raw2” value (DL1 cells; 0.04 µM, replicate 2) is reported as 2763628. For the same compound, the “Luminescence Raw1” value (DL1 cells; 0.2 µM, replicate 1) was 2626203, the “Luminescence Raw2” value (DL1 cells; 0.2 µM, replicate 2) was 2499962 and the “% viability, viability 2” value (DL1 cells; 0.2 µM) was 182.283%. For the same compound, the “Luminescence Raw1” value (DL1 cells; 1 µM, replicate 1) was 427059, the “% viability, viability 1” value (DL1 cells; 1 µM) was 31.1387% and the “Luminescence Raw2” value (DL1 cells; 1 µM, replicate 2) was 482949. For the same compound, the “% viability, viability 2” value (DL1 cells; 1 µM) was 35.2139%, the “Luminescence Raw1” value (DL1 cells; 4 µM, replicate 1) was 281027 and the “% viability, viability 1” value (DL1 cells; 4 µM) was 20.4909%. For the same compound, the “Luminescence Raw2” value (DL1 cells; 4 µM, replicate 2) was 305186, the “% viability, viability 2” value (DL1 cells; 4 µM) was 22.2524% and the “Luminescence Raw1” value (DL1 cells; 10 µM, replicate 1) was 281749. The “Luminescence Raw2” value (DL1 cells; 10 µM, replicate 2) was 304825, the “Luminescence Raw1” value (DL1 cells; 20 µM, replicate 1) was 307710 and the “Luminescence Raw2” value (DL1 cells; 20 µM, replicate 2) was 306988. The IC50 (DL1 cells; average±SEM) was 400 ± 20 nM, the IC50 (DL1 cells; read-out: IC50 (1), replicate 1) was 380 nM and the IC50 (DL1 cells; read-out: IC50 (2), replicate 2) was 414 nM. It also gave an IC50 (DL1 cells; read-out: IC50 Average, average of two replicates) of 397 nM, a viability at 0.04 µM [2, 5] of 216% and a viability at 0.04 µM [2, 6] of 202%. The viability at 0.2 µM ([2]; 0.2 µM, replicate 1, relative to DMSO 1%, read-out: % viability, viability 1) was 191%, the viability at 10 µM [2, 5] was 20.5% and the viability at 10 µM [2, 6] was 22.2%. For the same compound, the viability at 20 µM [2, 5] was 22.4%, the viability at 20 µM [2, 6] was 22.4% and the “effect on sphere formation” value (MCF-7 cells) was “clearly inhibited sphere formation”. The “MFE (%) ave” value (MCF-7 cells; 7 days, mean of 3, control 0.87) was 0.46%, the “MFE (control = 1) ave” value (MCF-7 cells; 7 days, relative to control = 1) was 0.53 and the “MFE (%)” value (MCF-7 cells; 7 days, single replicates) was 0.47% and 0.44%. For the same compound, the “Luminescence Raw1” value (l(2)mbn cells; 0.04 µM) was 4909467, the “Luminescence Raw2” value (l(2)mbn cells; 0.04 µM) was 3629794 and the “% viability, viability 2” value (l(2)mbn cells; 0.04 µM) was 57.8063%. The “Luminescence Raw1” value (l(2)mbn cells; 0.2 µM) was 5752008, the “Luminescence Raw2” value (l(2)mbn cells; 0.2 µM) was 4449089 and the “Luminescence Raw1” value (l(2)mbn cells; 1 µM) was 2597064. For the same compound, the “% viability, viability 1” value (l(2)mbn cells; 1 µM) was 41.3596%, the “Luminescence Raw2” value (l(2)mbn cells; 1 µM) was 1297263 and the “% viability, viability 2” value (l(2)mbn cells; 1 µM) was 20.6596%. For the same compound, the “Luminescence Raw1” value (l(2)mbn cells; 4 µM) was 133995, the “% viability, viability 1” value (l(2)mbn cells; 4 µM) was 2.134% and the “Luminescence Raw2” value (l(2)mbn cells; 4 µM) was 142288. The “% viability, viability 2” value (l(2)mbn cells; 4 µM) was 2.266%, the “Luminescence Raw1” value (l(2)mbn cells; 10 µM) was 107674 and the “% viability, viability 1” value (l(2)mbn cells; 10 µM) was 1.715%. The “Luminescence Raw2” value (l(2)mbn cells; 10 µM) was 99742, the “% viability, viability 2” value (l(2)mbn cells; 10 µM) was 1.588% and the “Luminescence Raw1” value (l(2)mbn cells; 20 µM) was 126784. For the same compound, the “Luminescence Raw2” value (l(2)mbn cells; 20 µM) was 170772, the IC50 (l(2)mbn cells; cytotoxicity, average±SEM) was 470 ± 210 nM and the IC50 (l(2)mbn cells; read-out: IC50 (1), cytotoxicity, replicate 1) was 681 nM. The IC50 (l(2)mbn cells; read-out: IC50 (2), cytotoxicity, replicate 2) was 259 nM, the IC50 (l(2)mbn cells; read-out: IC50 Average, cytotoxicity, average of two replicates) was 470 nM and the viability at 0.04 µM ([3]; 0.04 µM, replicate 1, relative to DMSO 1%, read-out: % viability, viability 1) was 78.2%. For the same compound, the viability at 0.2 µM [3, 5] was 91.6%, the viability at 0.2 µM [3, 6] was 70.9% and the viability at 20 µM [3, 5] was 2.02%. The viability at 20 µM [3, 6] was 2.72%, the EC50 ([4]; MAGI assay, read-out: EC50) was < 200 nM and the EC50 ([4]; single determinations, read-out: Efficacy (EC50)) was > 10000 nM.
